In PMC5462828 (Scientific Reports, 2017):

Key:
[1] = test system: ML290-mediated cAMP accumulation; experiment: Effect of signalling pathway inhibitors on ML290-mediated cAMP accumulation in human primary vascular cells; type: cell-based
Protocol: cAMP and cGMP accumulation was determined as previously described, [16]. Briefly, HEK293 cells were plated in 96-well plates (5 × 10^4 cells/well) and human primary cells were plated into 24-well plates (1 × 10^5 cells/well) and grown overnight to achieve a confluent monolayer. Prior to stimulation, HEK cells were serum-starved in DMEM containing 0.5% FBS v/v and primary cells were serum-starved in M199 medium for 4–6 hours. […] Levels of cAMP and cGMP were detected according to the manufacturer’s instructions (Perkin-Elmer, Australia).

mouse RXFP1 = details: cited from earlier work
[2] = set-up: method as in PMID 23764525; details: cited from earlier work
RXFP1 [3] = biological target: T1, RXFP1 (Homo sapiens, UniProt Q9HBX9); experiment: 125I-H2 relaxin association and dissociation kinetic studies in HEK-RXFP1 cells; type: binding; set-up: expressed in transfected cells; host or cells: HEK293T / HEK293 cells stably expressing RXFP1 (HEK-RXFP1); details: ML290 1 μM
T1 sequence (Q9HBX9 1-757): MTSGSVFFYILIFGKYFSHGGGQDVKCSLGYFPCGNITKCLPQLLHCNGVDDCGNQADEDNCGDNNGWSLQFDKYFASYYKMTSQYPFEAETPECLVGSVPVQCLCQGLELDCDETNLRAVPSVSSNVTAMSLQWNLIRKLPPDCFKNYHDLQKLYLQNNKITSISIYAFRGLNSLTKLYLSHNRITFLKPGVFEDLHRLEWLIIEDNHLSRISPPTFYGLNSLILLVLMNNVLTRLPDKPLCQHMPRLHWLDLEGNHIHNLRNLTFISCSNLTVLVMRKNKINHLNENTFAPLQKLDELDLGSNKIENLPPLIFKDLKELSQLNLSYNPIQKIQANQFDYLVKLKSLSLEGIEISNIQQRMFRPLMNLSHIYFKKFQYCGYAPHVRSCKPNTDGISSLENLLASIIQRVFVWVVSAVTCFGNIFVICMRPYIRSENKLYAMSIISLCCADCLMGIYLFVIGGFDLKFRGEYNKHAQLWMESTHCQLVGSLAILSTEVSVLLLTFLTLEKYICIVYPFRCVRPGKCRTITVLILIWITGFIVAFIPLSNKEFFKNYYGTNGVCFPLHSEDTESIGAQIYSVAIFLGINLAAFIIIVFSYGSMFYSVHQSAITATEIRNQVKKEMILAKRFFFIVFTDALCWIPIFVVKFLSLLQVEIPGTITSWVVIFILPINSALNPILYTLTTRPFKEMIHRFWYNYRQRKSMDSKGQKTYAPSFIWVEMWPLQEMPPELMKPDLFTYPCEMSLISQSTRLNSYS
Protocol: Association and dissociation kinetic studies were performed using ^125I-H2 relaxin. Briefly, HEK-RXFP1 cells were plated in 96-well plates and allowed to adhere overnight. After rinsing with PBS, the cells were incubated at the given time intervals with 100pM of ^125I-H2 relaxin to measure the association rate. The dissociation rate of ML290 was calculated using ligand competition. […] The reactions were terminated by the removal of medium and washing with ice-cold PBS. Cells were digested using 0.1 M NaOH and radioactivity counted on the γ-counter.

LDLa mutant receptors = details: cited from earlier work
human RXFP1 = details: cited from earlier work
RXFP1 [4] = biological target: T1, RXFP1; experiment: p38MAPK phosphorylation (Surefire) in HEK-RXFP1 cells; type: cell-based; set-up: expressed in transfected cells; host or cells: HEK293T / HEK293 cells stably expressing RXFP1 (HEK-RXFP1)
Protocol: (§1) p-ERK1/2, p-p38MAPK and p-JNK1/2 was measured using the Surefire ERK, p38 and JNK kits (TGR BioSciences, Australia) as described previously, [16]. Briefly, HEK-RXFP1 cells were plated into 96-well plates (5 × 10^4 cells/well) and primary cells grown in 24-well plates (1 × 10^5 cells/well) overnight to achieve a confluent monolayer. Prior to stimulation, HEK293 cells were serum-starved with DMEM containing 0.5% (v/v) FBS and primary cells in M199 medium for 4–6 hours. […] Levels of p-ERK1/2, p-p38MAPK and p-JNK1/2/3 were detected as per manufacturer’s instructions (Perkin-Elmer, Australia).

p-Smad2 = experiment: Smad2 phosphorylation assay in human cardiac fibroblasts; type: cell-based; details: 72 hours
Protocol: Cells were serum-starved in M199 medium for 24 hours prior sample collection. Cells were used between passages 1–4, while all experiments were performed four separate times in duplicate. Levels of p-Smad2 and p-Smad3 were detected using Sure-fire kits according to the manufacturer’s instructions (Perkin-Elmer, Australia).

[5] = set-up: method as in PMID 23764525; details: cited from earlier work; remark: listed apart in the source
RXFP1 [6] = biological target: T1, RXFP1; experiment: JNK1/2 phosphorylation (Surefire) in HEK-RXFP1 cells; type: cell-based; set-up: expressed in transfected cells; host or cells: HEK293T / HEK293 cells stably expressing RXFP1 (HEK-RXFP1); details: up to 45 min, H2 relaxin 100 nM, ML290 100 nM or 10 μM
Protocol: as §1

RXFP1 [7] = biological target: T1, RXFP1; experiment: p38MAPK phosphorylation (Surefire) in human primary vascular cells; type: cell-based; set-up: In human primary vascular endothelial and smooth muscle cells that endogenously express RXFP1; details: 15 min
Protocol: as §1

CC(C)Oc1ccccc1C(=O)Nc1ccccc1C(=O)Nc1cccc(S(=O)(=O)C(F)(F)F)c1 [ML290, 2-Isopropoxy-N-(2-(3-(trifluoromethylsulfonyl)phenylcarbamoyl)phenyl) benzamide]
ML290-mediated cAMP accumulation, ML290 alone ([1]; HCAECs, ML290 10 μM, 30 min): 22.5 ± 5.5 % response to 50 μM forskolin | ML290-mediated cAMP accumulation, ML290 alone ([1]; HUASMCs, control of NF449 and mSIRK experiments): 18.8 ± 4.3 % response to 50 μM forskolin | ML290-mediated cAMP accumulation, ML290 alone ([1]; HUASMCs, control of gallein and Wortmannin experiments): 16.7 ± 3.4 % response to 50 μM forskolin | ML290-mediated cAMP accumulation, ML290 alone ([1]; HUVECs, ML290 10 μM, 30 min): 16.4 ± 2.5 % response to 50 μM forskolin | ML290-mediated cAMP accumulation, ML290 alone ([1]; HUVSMCs, control of NF449 and mSIRK experiments): 18.8 ± 8.0 % response to 50 μM forskolin | ML290-mediated cAMP accumulation, ML290 alone ([1]; HUVSMCs, control of gallein and Wortmannin experiments): 12.6 ± 2.4 % response to 50 μM forskolin | action at mouse RXFP1 (mouse RXFP1): antagonist actions | agonist action at the mouse orthologue of RXFP1 (mouse RXFP1): no agonist actions | cytotoxicity [2]: little cytotoxicity | effect on the association rate of 125I-H2 relaxin (RXFP1 [3]): no significant effect | cAMP production with LDLa mutant receptors (LDLa mutant receptors): still activates cAMP production | competition for 125I-H2 relaxin binding (human RXFP1): does not compete | Emax (RXFP1 [4]; 15 min, read-out: p-p38MAPK efficacy (Emax) (converted)): 16.9% | p38MAPK phosphorylation, time course (RXFP1 [4]; up to 45 min, H2 relaxin 100 nM, ML290 100 nM or 10 μM): increased p38MAPK phosphorylation | effect on p-Smad2 levels (p-Smad2; HCFs not treated with TGF-β1, H2 relaxin 0.1 μM, ML290 1 μM): neither H2 relaxin (0.1 μM) nor ML290 (1 μM) significantly affected | p-Smad2 in TGF-β1-stimulated cells (p-Smad2; HCFs, TGF-β1 2 ng/ml + H2 relaxin 0.1 μM or ML290 1 μM): 1.58 ± 0.34 fold/basal | T1/2 in heart ([5]; heart): 7.48 h | tissue distribution ([5]; heart): concentrated in the heart | plasma half-life ([5]; mice): 8.56 h | toxicity ([5]; mice): without obvious toxicity | T1/2 in plasma ([5]; plasma): 8.56 h | JNK1/2 phosphorylation, time course (RXFP1 [6]): no effect | Emax (RXFP1 [7]; read-out: p-p38MAPK efficacy (Emax), HUASMC): 4.4% | Emax (RXFP1 [7]; read-out: p-p38MAPK efficacy (Emax), HUVSMC): 2.7%
